How the values were obtained:
newborn MoDCs = assay: TNF-α ELISA of supernatants of stimulated newborn MoDCs; format: cell-based, human; settings: for TNF production in response to single TLR agonist, newborn compared to adult MoDCs: newborn vs adult MoDCs, FIG. 2
Method: Isolated monocytes were seeded in 75 cm^2 tissue culture dishes for 5 days at 37° C. in a humidified incubator at 5% CO2 with 10^6 cells/ml medium. Medium consisted of RPMI 1640 medium with L-glutamine (GIBCO—LIFE TECHNOLOGIES, Carlsbad, Calif., USA) supplemented with 1% Penicillin-Streptomycin-Glutamine (PSG) (Invitrogen—Life Technologies, Carlsbad, Calif., USA) and 10% AP. This was supplemented with recombinant human (rh) IL-4 and rhGM-CSF (50 ng/ml and 100 ng/ml, respectively; R&D Systems, Minneapolis, Minn., USA). Additional fresh media and cytokines were provided on day 3 of incubation.
After 5 days, immature MoDCs were harvested by gently pipetting only the loosely adherent fraction and re-plated (10^5 cells/well) in 96-well U-bottom plates in the presence or absence of TLRAs, and/or CLRAs, and/or sterile DPBS. This MoDC array was then incubated for 18-24 hours at 37° C. in a humidified incubator at 5% CO2. After this stimulation MoDCs were harvested and processed for further functional assays. (FIG. 2).
Supernatants from MoDCs (GCI-DCs) stimulated for 18 hours in a humidified incubator (37° C., 5% CO2) with TLRAs, and/or CLRAs were analyzed for TNF-α production. For this, a human TNF enzyme-linked immunosorbent assay (ELISA) kit was used, and assay was performed according to manufacturer's instruction. (BD Biosciences, BD Biosciences, San Jose, Calif., USA). Results were read on a Versamax microplate reader with SoftMax Pro Version 5 (both from Molecular Devices, Sunnyville, Calif., USA).
The inventors further evaluated the ability of these two combinations of agonists to activate newborn MoDCs by establishing concentration-response curves and by investigating whether the enhancement in TNF secretion can be observed with similar agonists that activate the same receptors. In addition, the concentration-response curves were used to mathematically assess whether the observed enhancement by combining agonists is equal to the sum of the effects observed with individual agonists (i.e., was additive) or if these agonists activate the newborn cells synergistically. A modification of the Loewe definition of additivity was applied to determine whether the agonists act synergistically (D<1), additively (D=1) or antagonistically (D>1), where D=[Ac]/[Ae]+[Bc]/[Be], and [Ac] and [Bc] are the concentrations of compound A and B used in the dual (combined) stimulation and [Ae] and [Be] are the concentrations of A and B that induce an equal amount of TNF secretion alone.

newborn and adult MoDCs = assay: Gene expression by quantitative RT-PCR array, MPLA-stimulated newborn versus adult MoDCs; format: cell-based, human
Method: Total ribonucleic acid (RNA) of newborn and adult MoDCs (GCI-DCs and TC-DCs) was isolated with the miRNeasy kit, according to manufacturer's instructions (QIAGEN®, Inc., Valencia, Calif., USA) Total RNA from both un-stimulated cells and cells stimulated with 1 μg/ml MPLA was isolated. RNA quality was analyzed for quality and quantity by using a NanoDrop 1000 spectrophotometer (Thermo Scientific, Wilmington, Del., USA). Complementary deoxyribonucleic acid (cDNA) was prepared from total RNA from each sample with a miScript II RT Kit, according to manufacturer's instructions (QIAGEN®, Inc., Valencia, Calif., USA). cDNA was quantified on a PAHS-052Z plate (QIAGEN®, Inc., Valencia, Calif., USA). Quantitative real time-polymerase chain reaction (RT-PCR) was run on a 7300 real time PCR system (APPLIED BIOSYSTEMS®—Life Technologies, Life Technologies, Carlsbad, Calif., USA).

[1] = cited from earlier work

Pam3Cys
TNF production in response to single TLR agonist, newborn compared to adult MoDCs (newborn MoDCs): less TNF

glycopyranosyl lipid A [GLA]
synergy in TNF production with the partner agonist named in the sentence (newborn MoDCs; newborn MoDCs, VTX-294 for R848 (with TDB), GLA for MPLA (with Zymosan), BGP for Zymosan, Zymosan with MPLA or GLA): also present

monophosphoryl lipid A [MPLA]
TNF production in response to single TLR agonist, newborn compared to adult MoDCs (newborn MoDCs): less TNF
TNF gene expression, adults compared to newborns (newborn and adult MoDCs; MPLA 1 μg/ml, 24 hours): 2 fold
IL-6 and IL-10, newborn MoDCs compared to adult MoDCs (newborn and adult MoDCs; MPLA treatment, FIG. 1): more
expression levels of IRF7 and IRAK1, adult MoDCs compared to newborn (newborn and adult MoDCs; MPLA treatment, FIG. 1): higher
IL6 and CXCL-8 (IL8) gene expression, newborn MoDCs compared to adult MoDCs (newborn and adult MoDCs; after treatment with MPLA): greater
expression of IRF7, IRAK1 and NFKB1, adult MoDCs compared to newborn (newborn and adult MoDCs; after treatment with MPLA): greater

CCOCc1nc2c(N)nc3ccccc3c2[nH]1 [CL097, 2-(ethoxymethyl)-1 H-imidazo[4,5-c]quinolin-4-amine]
water solubility [1]: highly water-soluble

Polyinosinic:polycytidylic acid [Poly I:C]
TNF production in response to single TLR agonist, newborn compared to adult MoDCs (newborn MoDCs): less TNF

— patent US10881729B2, “Vaccine adjuvant compositions” (CHILDREN'S MEDICAL CENTER CORPORATION, priority 2014, dated 2021)
